According to patent US7534455B2, “Herbal composition PHY906 and its use in chemotherapy” (Yale University, priority 2000, dated 2009):
Where two headings read alike, the source gives them in different places.

Experiments:
hepatocellular carcinoma = conditions: cited from earlier work
[1] = Pharmacokinetics of gemcitabine (dFdC) and dFdU in plasma of PAN02 bearing BDF-1 mice; format: in vivo; conditions: for AUC, dFdC + PHY906: PHY906 500 mg/kg 30 min before gemcitabine; for AUC, dFdC alone: gemcitabine 600 mg/kg
Description: (§1) Plasma Handling: The mouse plasma was separated from the blood by centrifugation at 10,000 g at 4° C. for 10 min.
b) Gemcitabine-containing plasma: The plasma (50 μl) was extracted with 200 μl of acetonitrile (ACN) in the presence of 5 μl of 0.1 mM AZT as an internal standard. After centrifugation, the supernatant was dried by a Speedvac, reconstituted with 100 μl of solution containing 2.5% ACN and 97.5% of 15 mM ammonium acetate (pH 5.0).
(§2) The resultant analyte was then analyzed by HPLC with UV absorption and/or radioactivity.
To determine, for a future clinical trial, if PHY906 would change the metabolism of gemcitabine, a pharmacokinetics analysis in mice bearing pancreatic cancer was performed. Mice were divided into three sets of 15: gemcitabine only, gemcitabine plus PHY906, and vehicle control. Each mouse in the set was bled twice at two different time points. Plasma was processed as described in Materials and Methods and analyzed by HPLC with radioactivity confirmation of peak identity and quantitation.

[2] = Pharmacokinetics of capecitabine in animal models; format: in vivo, mouse
Description: as §1
a) Capecitabine-containing sample: The plasma (50 μl) was extracted with 200 μl of acetonitrile in the presence of 10 μl of 5-iodouracil (IU)(50 μg/ml) as an internal standard. After centrifugation, the supernatant from capecitabine-containing sample was dried by a speedvac, reconstituted with 50 μl of 0.1 M sodium acetate buffer (pH 4.8), and extracted with 1.3 ml of water-saturated ethyl acetate. The organic layer was separated after centrifugation (10,000 g at 4° C. for 10 min), dried by a speedvac and reconstituted with 100 μl of water.
as §2

colorectal cancer = conditions: cited from earlier work; for Median survival time / Median time to disease progression: NS
[3] = Pharmacokinetics of CPT-11/FU/LV in BDF-1 mice bearing Colon 38 tumor; format: in vivo; conditions: triple combination CPT-11/FU/LV
Description: The pharmacokinetic data of CPT-11/FU/LV in BDF-1 mice bearing Colon 38 tumor in the presence and absence of PHY906 are shown in FIGS. 18-20. PHY906-6 is a clinical batch of PHY906, containing 10% excipient (starch).

[4] = Determination of CPT-11 dose in non-tumor bearing BDF-1 mice (weight loss, death); format: in vivo; conditions: single i.p. bolus
Description: Animal weight loss was monitored as an indication of toxicity caused by anticancer chemotherapy agents. The effect of CPT-11 on weight loss in non-tumor bearing BDF-1 mice was studied using six different dosages: 100, 200, 300, 400, 600, or 800 mg/kg body weight to determine the maximum tolerable dose in mice. A single bolus dose of CPT-11 was administered intraperitoneally (i.p.) at the beginning of the study, and weight loss was monitored daily for 12 days.
One dose of CPT-11 was administered i.p. to each mouse at the beginning of the study, and the weight loss of the animal was then monitored daily for 12 days.

[5] = Toxicity (tolerable dose, body weight loss, death) in nude mice bearing human HepG2 xenografts; format: in vivo, NCr-nude mice
Description: Weight loss was observed immediately after CPT-11 treatment and continued for six days in mice injected with 400 mg/kg of CPT-11. These animals gradually recovered their original body weight on day 12. […] The maximum tolerable dose of CPT-11 in nude mice bearing the human HepG2 xenografts was 200 mg/kg (data not shown).
Human HepG2 tumor cells were implanted into NCr-nude mice to test the effect of PHY906 on the antitumor activity of CPT-11. […] CPT-11 (200 mg/kg, i.p.) was given on day 0. PHY906 was given twice daily at 500 mg/kg starting on day 0.
Based upon the known pharmacological profiles of herbs contained in PHY906, it was speculated that the enhancing effects might act through immunological and/or hematological systems in normal mice. Therefore, experiments were designed to test the hypothesis in nude mice, which are deficient in immunological and hematological systems. Human hepatocellular carcinoma HepG2 cells were implanted into NCr-nude mice to test the effect of PHY906 on the antitumor activity of CPT-11. […] CPT-11 (200 mg/kg, i.p.) was given on day 0. PHY906 was given twice daily at 500 mg/kg starting on day 0 and continued for 8 days. As shown in 31, PHY906 enhanced the antitumor effect of CPT-11 on human HepG2 xenografts in nude mice.

[6] = Host toxicity (body weight loss, mortality, blood cell counts) in chemotherapy treated BDF-1 mice bearing Colon 38 tumor; format: in vivo
Description: Anti-Tumor Studies: Murine Colon 38 (1-2×10^6 cells in 0.1 ml PBS) or human HepG2 cells (1-2×10^6 cells in 0.1 ml PBS) were transplanted subcutaneously into BDF1 or NCr athymic nude mice, respectively. The length and width of the tumors were measured daily with sliding calipers. The tumor weight was estimated according to the following formula (Pizzorno G, Wiegand R, Lentz S, et al., Cancer Res. 52:1660-1665 (1992)): Tumor weight (mg)=length (mm)×width (mm)^2/2.
After 10 to 14 days, mice (five animals/group) with tumor weights ranging from 150-200 mg were selected for drug studies (Guo X, Lerner-Tung M, Chen H X, et al., Biochem Pharmacol 49:1111-1116 (1995)). Mice were sacrificed when the tumor size reached 10% of body weight. PHY906 was administered orally either alone or with anti-cancer chemotherapeutic agents. The effect of PHY906 on antitumor efficacy and the reduction of toxicity by the agents were evaluated. CPT-11 was given intraperitoneally (i.p.) 30 min after PHY906 administration with the selected dose. The regimen of FU/LV combination therapy was given as follows:
The first day of treatment was defined as day 0. PHY906 was given orally twice a day (10 am and 3 pm) for either 4 or 8 days beginning on day 0. For the control group, mice were administrated a vehicle, either PBS for i.p. or H2O for p.o. (oral administration). Animals were monitored for mortality, weight loss, and tumor size daily.
Blood Cell Counts: Blood (20 μl) was taken from mice on days 0, 3, 6, 9 and 12 with micro-capillary tubes. Blood was then be diluted to 200 μl with normal saline (0.85% Sodium Chloride). WBC, RBC and platelets were counted by a BAKER SYSTEM 9100™ […] (Biochem ImmunoSystems Inc., Allentown, Pa. 18103-9562).
PHY906 was evaluated as a modulator of CPT-11 therapy for toxic side effects in mice inoculated with Colon 38 tumor cells. Based on the previous findings (Example 2), a single bolus dose of 400 mg/kg CPT-11 was selected to study the effect of PHY906 on weight-loss associated with toxicity of CPT-11. To evaluate whether PHY906 impairs the antitumor efficacy of CPT-11, mice were implanted subcutaneously with Colon 38 tumor cells. Ten to 14 days after inoculation, mice were treated with CPT-11 (400 mg/kg, i.p.) in the absence or presence of PHY906, which was given orally twice a day at varying doses (125 mg/kg, 250 mg/kg, and 500 mg/kg). PHY906 treatment was continued at the dose indicated for 8 consecutive days.
Mice were divided into four groups with different treatment regimens: Group (A) treatment with vehicle; Group (B) treatment with a single dose of 400 mg/kg CPT-11 by i.p. injection; Group (C) treatment with PHY906 (500 mg/kg/b.i.d.) alone; or Group (D) treatment with a single dose of 400 mg/kg CPT-11 plus 500 mg/kg/b.i.d. PHY906 for 4 or 8 days. The sequence of each treatment regimen appears in Materials and Methods. As depicted in Table 9, 35 of 35 tumor-bearing mice (100%) from Group A and 15 of 15 mice (100%) from Group C survived treatment with either vehicle or PHY906 alone for 4 or 8 days, indicating no or very low toxicity for PHY906.

[7] = CPT-11 400 mg/kg, 1 day, alone, observed 14 days

Structure (SMILES): COc1cccc2c1C(=O)c1c(O)c3c(c(O)c1C2=O)C[C@@](O)(C(=O)CO)C[C@@H]3O[C@H]1C[C@H](N)[C@H](O)[C@H](C)O1 [doxorubicin, Doxorubicin]
- Response rate (hepatocellular carcinoma; eight trials, 475 evaluable patients (range 0-35%)): 16%

Structure (SMILES): O=c1ccn(C2OC(CO)C(O)C2(F)F)c(=O)[nH]1 (stereo not shown) [dFdU]
- Cmax, dFdC + PHY906 ([1]; Radioactivity detection): 48000 ng/mL
- Cmax, dFdC alone ([1]; Radioactivity detection): 31000 ng/mL
- Tmax, dFdC + PHY906 ([1]; Radioactivity detection): 2 h
- Tmax, dFdC alone ([1]; Radioactivity detection): 1 h
- T½, dFdC + PHY906 ([1]; Radioactivity detection): 0.82 h
- T½, dFdC alone ([1]; Radioactivity detection): 1.55 h
- AUC, dFdC + PHY906 ([1]; Radioactivity detection): 8.5 mg·min/mL
- AUC, dFdC alone ([1]; Radioactivity detection): 5.8 mg·min/mL
- Cmax, dFdC + PHY906 ([1]; UV detection): 22000 ng/mL
- Cmax, dFdC alone ([1]; UV detection): 14000 ng/mL
- Tmax, dFdC + PHY906 ([1]; UV detection): 2 h
- Tmax, dFdC alone ([1]; UV detection): 1 h
- T½, dFdC + PHY906 ([1]; UV detection): 1.16 h
- T½, dFdC alone ([1]; UV detection): 1.64 h
- AUC, dFdC + PHY906 ([1]; UV detection): 4.4 mg·min/mL
- AUC, dFdC alone ([1]; UV detection): 3.1 mg·min/mL
- Levels in circulation in the presence or absence of PHY906 ([1]; plasma): not a dramatic difference

Structure (SMILES): CCCCCOC(=O)Nc1nc(=O)n([C@@H]2O[C@H](C)[C@@H](O)[C@H]2O)cc1F [capecitabine, 5′-deoxy-5-fluoro-N-[(pentyloxy)carbonyl]-cytidine]
- Pharmacokinetic profile on co-administration of PHY906 [2]: did not alter the pharmacokinetic profile
- Response rate (hepatocellular carcinoma; 55 patients with nonresectable hepatobiliary carcinoma): 13%
- Response rate (hepatocellular carcinoma; hepatocellular carcinoma / liver cancer, systemic chemotherapy): 13%
- Median survival time (colorectal cancer; Hoff et al. 2001): 380 days
- Median time to disease progression (colorectal cancer; Hoff et al. 2001): 128 days
- Response rate (colorectal cancer; Hoff et al. 2001, P=0.0014): 21%
- Median survival time (colorectal cancer; Van Cutsem et al. 2001): 404 days
- Median time to disease progression (colorectal cancer; Van Cutsem et al. 2001): 137 days
- Response rate (colorectal cancer; Van Cutsem et al. 2001, P=0.027): 21%

Structure (SMILES): O=c1[nH]cc(F)c(=O)[nH]1 [FU, 5-fluorouracil]
- AUCs of FU and its nucleoside/nucleotide metabolites (FU+FUR+FUMP) in plasma or liver after PHY906 co-administration [3]: change
- Response rate in patients with advanced disease (colorectal cancer; human, in vivo): 10%-12%

Structure (SMILES): CCc1c2c(nc3ccc(OC(=O)N4CCC(N5CCCCC5)CC4)cc13)-c1cc3c(c(=O)n1C2)COC(=O)[C@]3(O)CC [CPT-11, Irinotecan]
- Dosages with little effect on body weight [4]: lower than 200 mg/kg
- Doses resulting in animal death on the second day [4]: greater than or equal to 600 mg/kg
- Doses mice were able to tolerate ([4]; 12 days): up to 400 mg/kg
- Maximum tolerable dose [5]: 200 mg/kg
- Survival [6, 7]: 82.5%
- Total No. of Mice Survived N [6, 7]: 33
- Animal Death (Death/Total) ([6]; CPT-11 treated mice, observed for 14 days): 7/40
- Level in tumor or liver tissues after PHY906 co-administration [3]: no significant change
- AUC in plasma after co-administration of PHY906 ([3]; PHY906-6): increases
- Response rate, second-line therapy (colorectal cancer; advanced colorectal cancer): 10%-15%

Structure (SMILES): CCc1c2c(nc3ccc(O)cc13)-c1cc3c(c(=O)n1C2)COC(=O)[C@]3(O)CC [SN-38]
- Level in plasma, liver, or tumor after PHY906 co-administration [3]: remains unchanged
